In article PMC2728764 (ACS chemical biology, 2008):

Assays:
[1] = molecular target: AdmH (Pantoea agglomerans, UniProt Q84FL5); assay: chiral radio-HPLC; format: biochemical; conditions: labelled compound ([14C]-L-Phe, 100 µM); 20 mM tricine pH 8.25, 30 °C
[2] = test system: AdmJ; assay: ATP-[…]PPi exchange assay; format: biochemical, Pantoea agglomerans; conditions: 5 mM ATP, 1 mM PPi, 10 mM MgCl2, 5 mM TCEP, 75 mM Tris pH 7.5, RT

Km [2]: 130 ± 34 µM
Structure (SMILES): N[C@@H](CC(=O)O)c1ccccc1 [(S)-β-Phe]
chiral radio-HPLC [1]: The β-Phe generated by AdmH was found to be solely (S)-β-Phe
